Assay results taken from patent US4822800A (Ortho Pharmaceutical Corporation, priority 1986, dated 1989).
Like-named read-outs stand apart in the source and are kept apart here.

Key:
[1] = system: adult mongrel dogs; experiment: acute in vivo cardiotonic activity in anesthetized dogs; set-up: species or system dog (adult mongrel); details: Canis lupus familiaris, cardiotonic, relative to controls; for change in vivo at 1.875 mg/kg: dose 1.875 mg/kg intravenous; for change in vivo at 0.375 mg/kg: dose 0.375 mg/kg intravenous; for change in vivo at 0.125 mg/kg: dose 0.125 mg/kg intravenous; for change in vivo at 1.87 mg/kg: dose 1.87 mg/kg intravenous; for change in vivo at 0.875 mg/kg: dose 0.875 mg/kg intravenous
Description: The acute in vivo cardiotonic activity of compounds prepared according to the present invention was determined according to a modification of the procedure described by Alousi et al., Circ. Res., 45, 666 (1979).
In particular, adult mongrel dogs were anesthetized with sodium pentobarbital and were artificially respired. Arterial pressure was monitored via a femoral artery, and the pulse pressure was used to trigger a cardiotachometer for heart rate. Left ventricular pressure was determined with a Millar catheter, and dP/dt (the change in ventricular pressure with time) was derived. Cardiac output was determined by measuring ascending aortic blood flow with an electromagnetic flow probe, and myocardial contractile force was measured with a Walton Brodie strain gauge sutured to the right ventricle. Lead II EKG was also recorded.
A standard dose (10 μg/kg/min) of dopamine was administered to assess myocardial responsiveness.
Compounds of the invention were administered by intravenous infusion or bolus […] administration, and the effects on cardiovascular parameters were determined.
Dose related effects of the test compound on blood pressure (BP), heart rate (HR), maximum change in left ventricular pressure with time (dP/dt max),% change in cardiac force (CF) and the increase in mean arterial blood pressure relative to controls (MABP) were compared to pretreatment control values, expressed as a% change and rated for activity.

[2] = system: adult mongrel dogs; experiment: renal vasodilating activity in anesthetized dogs; assay type: in vivo, dog (adult mongrel); details: Canis lupus familiaris, renal vasodilator, relative to controls; for change in vivo at 1.2 mg/kg: dose 1.2 mg/kg intravenous; for change in vivo at 6.2 mg/kg: dose 6.2 mg/kg intravenous; for change in vivo at 0.2 mg/kg: dose 0.2 mg/kg intravenous; for change in vivo at 13.9 mg/kg / change in vivo at up to 13.9 mg/kg: dose 13.9 mg/kg intravenous
Description: Goldberg et al, J. Pharmacol. Exp. Ther., 163, 188 (1968), performed an investigation of the structural requirements for dopamine-like renal vasodilation of phenethylamines and apomorphine. The following procedure is a variation of the assay described in that report.
Adult mongrel dogs were anesthetized and surgically prepared for electromagnetic measurement of renal artery blood flow. A carotid artery was cannulated for measuring arterial blood pressure, and drugs were administered intravenously. Heart rate was monitored with a cardiotachometer. Renal vascular resistance was calculated as the ratio of mean arterial blood pressure/renal artery blood flow. Dopamine was infused intravenously at 3 μg/kg/min for ten minutes (at an infusion rate of about 1 ml/min) to determine responsiveness of each dog to renal dopamine receptor stimulation. Cumulative dose-response data were obtained by infusing a compound of this invention at progressively increasing (usually three-fold) infusion rates, each dose being infused for five minutes. The maximum % increase from pre-drug control in renal artery blood flow (or a decrease in renal vascular resistance) was determined for each infusion dose.
RBF values are percent change in renal blood flow. RVR values are percent change in renal vascular resistance. MABP and HR are percent changes in mean arterial blood pressure and heart rate, respectively, relative to controls.

[3] = read-out: MABP (mean arterial blood pressure)
[4] = read-out: dP/dt (maximum change left ventricular pressure with time)
[5] = read-out: RBF (renal blood flow)
[6] = read-out: RVR (renal vascular resistance)

`Cc1nc(O)c(Cl)c2cc3c(cc12)OCO3` [AG] showed a change in vivo at 1.875 mg/kg ([1]; read-out: CF (cardiac force)) of 88%, a change in vivo at 1.875 mg/kg ([1]; read-out: HR (heart rate)) of 28% and a change in vivo at 1.875 mg/kg [1, 3] of -22%. It also gave a change in vivo at 1.875 mg/kg [1, 4] of 51%, a change in vivo at 1.2 mg/kg ([2]; read-out: HR (heart rate)) of 27% and a change in vivo at 1.2 mg/kg [2, 3] of -27%. For the same compound, the change in vivo at 1.2 mg/kg [2, 5] was 10% and the change in vivo at 1.2 mg/kg [2, 6] was -34%.

For `COc1cc2c(C)nc(O)c(CC(C)C)c2cc1OC` [AJ], the change in vivo at 1.875 mg/kg ([1]; read-out: CF (cardiac force)) was 39%, the change in vivo at 1.875 mg/kg ([1]; read-out: HR (heart rate)) was 10% and the change in vivo at 1.875 mg/kg [1, 3] was -6%. For the same compound, the change in vivo at 1.875 mg/kg [1, 4] was 25%, the change in vivo at 6.2 mg/kg ([2]; read-out: HR (heart rate)) was 2% and the change in vivo at 6.2 mg/kg [2, 3] was 4%. The change in vivo at 6.2 mg/kg [2, 5] was 9% and the change in vivo at 6.2 mg/kg [2, 6] was -4%.

For `CCOc1cc2c(C)nc(O)cc2cc1OC` [AK], the change in vivo at 0.375 mg/kg ([1]; read-out: CF (cardiac force)) was 114%, the change in vivo at 0.375 mg/kg ([1]; read-out: HR (heart rate)) was 13% and the change in vivo at 0.375 mg/kg [1, 3] was -5%. It also gave a change in vivo at 0.375 mg/kg [1, 4] of 39%, a change in vivo at 0.2 mg/kg ([2]; read-out: HR (heart rate)) of 10% and a change in vivo at 0.2 mg/kg [2, 3] of -2%. The change in vivo at 0.2 mg/kg [2, 5] was 10% and the change in vivo at 0.2 mg/kg [2, 6] was -11%.

In the case of `CCOc1cc2cnc(O)cc2cc1OC` [AQ], the change in vivo at 1.2 mg/kg ([2]; read-out: HR (heart rate)) is reported as 16%, the change in vivo at 1.2 mg/kg [2, 3] is reported as 0% and the change in vivo at 1.2 mg/kg [2, 5] is reported as 13%. For the same compound, the change in vivo at 1.2 mg/kg [2, 6] was -12%.

In the case of `CCOc1cc2c(C)nc(O)c(CC)c2cc1OC` [AS], the change in vivo at 0.125 mg/kg ([1]; read-out: CF (cardiac force)) is reported as 78%, the change in vivo at 0.125 mg/kg ([1]; read-out: HR (heart rate)) is reported as 8% and the change in vivo at 0.125 mg/kg [1, 3] is reported as -10%. For the same compound, the change in vivo at 0.125 mg/kg [1, 4] was 49%, the change in vivo at 6.2 mg/kg ([2]; read-out: HR (heart rate)) was 2% and the change in vivo at 6.2 mg/kg [2, 3] was -1%. It also gave a change in vivo at 6.2 mg/kg [2, 5] of 9% and a change in vivo at 6.2 mg/kg [2, 6] of -11%.

For `COc1cc(Br)c2cc(O)nc(C)c2c1OC` [AU], the change in vivo at 6.2 mg/kg ([2]; read-out: HR (heart rate)) was -3%, the change in vivo at 6.2 mg/kg [2, 3] was 0% and the change in vivo at 6.2 mg/kg [2, 5] was 20%. For the same compound, the change in vivo at 6.2 mg/kg [2, 6] was -10%.

`COc1cc2c(C)nc(O)c(C(=O)NN)c2cc1OC` [AV] gave a change in vivo at 1.87 mg/kg ([1]; read-out: CF (cardiac force)) of 89%, a change in vivo at 1.87 mg/kg ([1]; read-out: HR (heart rate)) of 14% and a change in vivo at 1.87 mg/kg [1, 3] of -2%. The change in vivo at 1.87 mg/kg [1, 4] was 34%, the change in vivo at 1.2 mg/kg ([2]; read-out: HR (heart rate)) was 1% and the change in vivo at 1.2 mg/kg [2, 3] was 5%. It also gave a change in vivo at 1.2 mg/kg [2, 5] of 22% and a change in vivo at 1.2 mg/kg [2, 6] of -13%.

With `CCOc1cc2cc(O)nc(C)c2cc1OC` [AW] the change in vivo at 6.2 mg/kg ([2]; read-out: HR (heart rate)) was 59%, the change in vivo at 6.2 mg/kg [2, 3] was -17% and the change in vivo at 6.2 mg/kg [2, 5] was 20%. It also gave a change in vivo at 6.2 mg/kg [2, 6] of -34%.

With `Cc1nc(O)cc2cc(O)c(O)cc12` [Compound A] the change in vivo at 13.9 mg/kg ([2]; read-out: HR (heart rate)) was 14%, the change in vivo at 13.9 mg/kg [2, 3] was -9% and the change in vivo at 13.9 mg/kg [2, 5] was 30%. It also gave a change in vivo at up to 13.9 mg/kg [2, 6] of -30%.

`COc1ccc2cc(O)nc(C)c2c1OC` [Compound C, 3-Hydroxy-7,8-dimethoxy-1-methylisoquinoline] was tested, and the change in vivo at 0.875 mg/kg ([1]; read-out: CF (cardiac force)) was 62%, the change in vivo at 0.875 mg/kg ([1]; read-out: HR (heart rate)) was 10% and the change in vivo at 0.875 mg/kg [1, 3] was -6%. The change in vivo at 0.875 mg/kg [1, 4] was 51%.

In the case of `COc1cc2c(C)nc(O)c(CCC(=O)O)c2cc1OC` [Compound E, 4-β-Carboxyethyl-3-hydroxy-6,7-dimethoxy-1-methylisoquinoline], the change in vivo at 1.875 mg/kg ([1]; read-out: CF (cardiac force)) is reported as 75%, the change in vivo at 1.875 mg/kg ([1]; read-out: HR (heart rate)) is reported as 5% and the change in vivo at 1.875 mg/kg [1, 3] is reported as -3%. For the same compound, the change in vivo at 1.875 mg/kg [1, 4] was 42%, the change in vivo at 13.9 mg/kg ([2]; read-out: HR (heart rate)) was 11% and the change in vivo at 13.9 mg/kg [2, 3] was -7%. For the same compound, the change in vivo at 13.9 mg/kg [2, 5] was 7% and the change in vivo at up to 13.9 mg/kg [2, 6] was -13%.

For `Cc1nc(O)cc2ccc(O)c(O)c12` [Compound I], the change in vivo at 13.9 mg/kg ([2]; read-out: HR (heart rate)) was 38%, the change in vivo at 13.9 mg/kg [2, 3] was -4% and the change in vivo at 13.9 mg/kg [2, 5] was 35%. It also gave a change in vivo at up to 13.9 mg/kg [2, 6] of -29%.

Compound `COc1cc2c(C)nc(O)c(CCC(=O)OC(C)C)c2cc1OC` [Compound R, 4-β-Carboisopropoxyethyl-3-hydroxy-6,7-dimethoxy-1-methylisoquinoline] has a change in vivo at 1.875 mg/kg ([1]; read-out: CF (cardiac force)) of 22%, a change in vivo at 1.875 mg/kg ([1]; read-out: HR (heart rate)) of 3% and a change in vivo at 1.875 mg/kg [1, 3] of -6%. The change in vivo at 1.875 mg/kg [1, 4] was 15%.

Compound `COC(=O)CCc1c(O)nc(C)c2cc3c(cc12)OCO3` [L] has a change in vivo at 0.875 mg/kg ([1]; read-out: CF (cardiac force)) of 131%, a change in vivo at 0.875 mg/kg ([1]; read-out: HR (heart rate)) of 38% and a change in vivo at 0.875 mg/kg [1, 3] of -21%. It also gave a change in vivo at 0.875 mg/kg [1, 4] of 118%.

`CCCc1nc(O)c(CCC(=O)OC)c2cc(OC)c(OC)cc12` [M] gave a change in vivo at 1.875 mg/kg ([1]; read-out: CF (cardiac force)) of 17%, a change in vivo at 1.875 mg/kg ([1]; read-out: HR (heart rate)) of 2% and a change in vivo at 1.875 mg/kg [1, 3] of -4%. For the same compound, the change in vivo at 1.875 mg/kg [1, 4] was 19%.

For `COC(=O)CCc1c(O)nc(C(C)C)c2cc(OC)c(OC)cc12` [P], the change in vivo at 1.875 mg/kg ([1]; read-out: CF (cardiac force)) was 15%, the change in vivo at 1.875 mg/kg ([1]; read-out: HR (heart rate)) was 7% and the change in vivo at 1.875 mg/kg [1, 3] was 3%. It also gave a change in vivo at 1.875 mg/kg [1, 4] of 17%.

Work on `CCOC(=O)CCc1c(O)nc(C)c2cc(OC)c(OC)cc12` [S] yielded a change in vivo at 0.875 mg/kg ([1]; read-out: CF (cardiac force)) of 60%, a change in vivo at 0.875 mg/kg ([1]; read-out: HR (heart rate)) of 8% and a change in vivo at 0.875 mg/kg [1, 3] of -4%. It also gave a change in vivo at 0.875 mg/kg [1, 4] of 20%.

With `COc1cc2c(C)nc(O)c(CCC(=O)OC3CCCC3)c2cc1OC` [T] the change in vivo at 0.875 mg/kg ([1]; read-out: CF (cardiac force)) was 23%, the change in vivo at 0.875 mg/kg ([1]; read-out: HR (heart rate)) was 9% and the change in vivo at 0.875 mg/kg [1, 3] was -3%. It also gave a change in vivo at 0.875 mg/kg [1, 4] of 29%.

`COC(=O)CCc1c(O)ncc2cc3c(cc12)OCO3` [U] showed a change in vivo at 1.875 mg/kg ([1]; read-out: CF (cardiac force)) of 26%, a change in vivo at 1.875 mg/kg ([1]; read-out: HR (heart rate)) of 6% and a change in vivo at 1.875 mg/kg [1, 3] of 0%. For the same compound, the change in vivo at 1.875 mg/kg [1, 4] was 28%.

In the case of `CNC(=O)CCc1c(O)nc(C)c2cc(OC)c(OC)cc12` [X], the change in vivo at 0.875 mg/kg ([1]; read-out: CF (cardiac force)) is reported as 40%, the change in vivo at 0.875 mg/kg ([1]; read-out: HR (heart rate)) is reported as 4% and the change in vivo at 0.875 mg/kg [1, 3] is reported as -5%. For the same compound, the change in vivo at 0.875 mg/kg [1, 4] was 24%.
